Results reported in patent publication US8163921B2, “Hepatitis C virus inhibitors” (Bristol-Myers Squibb Company, priority 2008, dated 2012).

Assays:
[1] = molecular target: T1, human liver cathepsin B (Homo sapiens, UniProt P07858); experiment: Specificity assay, cathepsin B; type: biochemical; settings: read-out: Cathepsin B activity in the specificity assays
T1 construct: purchased Sigma, EMDbiosciences; host or cells: human liver (as named)
Experimental: (§1) The specificities of compounds of the present disclosure were determined against a variety of serine proteases: human neutrophil elastase (HNE), porcine pancreatic elastase (PPE) and human pancreatic chymotrypsin and one cysteine protease: human liver cathepsin B. In all cases a 96-well plate format protocol using a fluorometric Amino-Methyl-Coumarin (AMC) substrate specific for each enzyme was used as described previously (PCT Patent Application No. WO 00/09543) with some modifications to the serine protease assays. All enzymes were purchased from Sigma, EMDbiosciences while the substrates were from Bachem, Sigma and EMDbiosciences.
(§2) Compound concentrations varied from 100 to 0.4 μM depending on their potency. The enzyme assays were each initiated by addition of substrate to enzyme-inhibitor pre-incubated for 10 min at room temperature and hydrolysis to 15% conversion as measured on cytofluor.
100 mM NaOAC (Sodium Acetate) pH 5.5, 3% DMSO, 1 mM TCEP (Tris(2-carboxyethyl)phosphine hydrochloride), 5 nM Cathepsin B (enzyme stock activated in buffer containing 20 mM TCEP before use), and 2 μM Z-FR-AMC diluted in H2O.
(§3) The percentage of inhibition was calculated using the formula: [1−((UVinh−UVblank)/(UVctl−UVblank))]×100
(§4) A non-linear curve fit was applied to the inhibition-concentration data, and the 50% effective concentration (IC50) was calculated by the use of Excel XLfit software.

[2] = molecular target: T2, porcine pancreatic elastase (PPE) (Sus scrofa, UniProt P00772); experiment: Specificity assay, PPE; type: biochemical; settings: read-out: PPE activity in the specificity assays
T2 construct: purchased Sigma, EMDbiosciences
T2 sequence (P00772 27-266): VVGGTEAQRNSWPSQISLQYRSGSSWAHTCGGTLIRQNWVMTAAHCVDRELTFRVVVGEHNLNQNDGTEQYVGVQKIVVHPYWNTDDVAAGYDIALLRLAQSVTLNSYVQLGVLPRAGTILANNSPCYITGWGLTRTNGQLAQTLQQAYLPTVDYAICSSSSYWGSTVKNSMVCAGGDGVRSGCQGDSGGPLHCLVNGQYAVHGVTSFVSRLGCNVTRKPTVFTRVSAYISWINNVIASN
Experimental: as §1, §2
50 mM Tris-HCl, pH 8.0, 50 mM NaCl, 0.1 mM EDTA, 3% DMSO, 0.02% Tween-20, 5 μM succ-AAPV-AMC and 20 nM HNE or 8 nM PPE;
as §3, §4

[3] = test system: human pancreatic chymotrypsin; experiment: Specificity assay, chymotrypsin; type: biochemical; settings: read-out: Chymotrypsin activity in the specificity assays
Experimental: as §1, §2
50 mM Tris(hydroxymethyl)aminomethane hydrochloride (Tris-HCl) pH 8, 0.5 M Sodium Sulfate (Na2SO4), 50 mM NaCl, 0.1 mM EDTA, 3% DMSO, 0.01% Tween-20 with 5 μM LLVY-AMC and 1 nM Chymotrypsin.
as §3, §4

[4] = molecular target: T3, HCV NS3/4A protease complex, BMS strain (UniProt P27958, C1454S/C1711G, species not given); experiment: FRET peptide assay to monitor HCV NS3/4A proteolytic activity (BMS strain); type: biochemical, HCV genotype 1a; settings: read-out: IC50 Range; HCV NS3/4A enzyme assay; class symbols
T3 construct: other: HCV NS3/4A enzyme assay; class symbols; numeric values; fused on or other part: three-lysine solubilising tail at the C-terminus of NS4A; purified on Ni-NTA from the pET21b vector (His tag implied)
Method in brief: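 Recombinant HCV NS3/4A protease complex (BMS strain, genotype 1a), 2-3 nM final (300 pM with 50 μg/ml BSA for very potent compounds), incubated with RET S1 EDANS/DABCYL depsipeptide substrate at 2 μM final. Buffer: 50 mM HEPES pH 7.5, 0.15 M NaCl, 0.1% Triton, 15% glycerol, 10 mM βME. Cleavage followed in real time by fluorescence.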

C=C[C@@H]1C[C@]1(NC(=O)[C@@H]1C[C@@H](Oc2ncc(OC)c3ccc(Cl)cc23)CN1C(=O)[C@@H](Nc1nc(-c2cccc(OC(F)(F)F)c2)cs1)C(C)(C)C)C(=O)NS(=O)(=O)C1CC1 [Example 68]
IC50 [1]: 15 µM | IC50 [2]: > 50 µM | IC50 [3]: 3000 nM | IC50 [4]: 1 to 20 nM
